≈ marks a conversion by molar mass, not a printed value. Calls of active or inactive are those of the source. The calls are words filed in the database; no cut-off is given here.
Legend:
[1] = system: PC-12; assay: Neuroprotective activity against glutamate-induced neurotoxicity in rat PC-12 cells assessed as survival rate at 0.1 uM by WST-8 assay (reference value: 40.8+/-2.0%); format: functional
[2] = system: PC-12; assay: Neuroprotective activity against glutamate-induced neurotoxicity in rat PC-12 cells assessed as survival rate at 1 uM by WST-8 assay; format: functional
[3] = system: PC-12; assay: Cytotoxicity in rat PC-12 cells assessed as reduction in cell viability at 10 uM incubated for 24 hrs by CCK-8 method; format: toxicity, cell-based; settings: pc-12, 24 h
[4] = system: PC-12; assay: Neuroprotective activity against glutamate-induced neurotoxicity in rat PC-12 cells assessed as survival rate at 10 uM by WST-8 assay; format: functional
[5] = Solubility of the compound in water by UV spectophotometry analysis; format: physicochemical
[6] = system: Mus musculus; assay: Neuroprotective activity in middle cerebral artery occlusion-induced C57BL/6 mouse model assessed as reduction in infarct volume at 2 mg/kg, sc incubated with compound for 2 hrs after reperfusion by TTC staining based assay; format: functional
[7] = target: T1, Glutamate NMDA receptor; GRIN1/GRIN2A (Homo sapiens) (UniProt Q05586+Q12879); assay: Positive allosteric modulation of GluN1/GluN2A receptor (unknown origin) stably expressed in HEK293 cells assessed as ratio of Fmax/F0 fluorescence curve value; format: cell-based; settings: filed as positive allosteric modulator
[8] = target: T1, Glutamate NMDA receptor; GRIN1/GRIN2A (Homo sapiens); assay: Positive allosteric modulation of GluN1/GluN2A receptor (unknown origin) stably expressed in HEK293 cells assessed as glutamate/glycine induced increase in intracellular calcium level at 10 uM incubated for 30 mins followed by addition of glutamate/glycine by Ca2+ influx assay; format: cell-based; settings: filed as positive allosteric modulator
[9] = target: Glutamate NMDA receptor; GRIN1/GRIN2B (Homo sapiens) (UniProt Q05586+Q13224); assay: Positive allosteric modulation of GluN1/GluN2B receptor (unknown origin) stably expressed in HEK293 cells assessed as glutamate/glycine induced increase in intracellular calcium level at 10 uM incubated for 30 mins followed by addition of glutamate/glycine by Ca2+ influx assay; format: cell-based
[10] = system: Mus musculus; assay: Neuroprotective activity in middle cerebral artery occlusion-induced C57BL/6 mouse model assessed as reduction in infarct volume at 2 mg/kg, sc incubated with compound for 2 hrs after reperfusion by TTC staining based assay relative to control; format: functional; set-up: scale not given: the % may be the effect or the level left
[11] = filed as positive allosteric modulator

In the case of `CNC(=O)c1ccccc1NC(=O)c1c[nH]c2c(Cl)cccc2c1=O`, the Activity [1] was 47.6%, the Activity [2] was 47.3% and the Activity [3] was 93.8%. The Activity [4] was 42.6%.
`COc1cccc(NC(=O)C2=Cc3ccccc3OC2)c1` showed an Activity [1] of 34.2%, an Activity [2] of 35.3% and an Activity [3] of 79.1%. For the same compound, the Activity [4] was 62.6%.
`Cc1ccc(O)cc1NC(=O)c1c[nH]c2c(Cl)cccc2c1=O` showed a solubility [5] of 140 µM (≈ 46 µg/mL), an Activity [1] of 53.6% and an Activity [2] of 44.7%. For the same compound, the Activity [3] was 92.7% and the Activity [4] was 41.6%.
`CCOc1cc(Cl)c(Cl)c(/C=N/NC(=O)c2ccccc2Br)c1O` showed an Activity [6] of 149 mm, a Ratio [7] of 152 and an Activity [1] of 44.3%. The Activity [8] was “Active”, the Activity [9, 11] was “Active” and the Activity [2] was 53.1%. For the same compound, the Activity [10] was 31.33%, the Activity [3] was 40.2% and the Activity [4] was 8.6%.
For `CC(=O)Nc1ccc(NC(=O)C2=Cc3ccccc3OC2)cc1`, the Activity [6] was 93 mm, the solubility [5] was 364 µM (≈ 112 µg/mL) and the Activity [1] was 62.1%. The Activity [2] was 54.1%, the Activity [3] was 84.7% and the Activity [4] was 57.3%.
`COc1ccc(NC(=O)c2c[nH]c3ccccc3c2=O)c(C)c1` gave an Activity [1] of 33.6%, an Activity [2] of 34.2% and an Activity [3] of 62%. It also gave an Activity [4] of 44%.
`COC(=O)c1ccc(NC(=O)C2=Cc3ccccc3OC2)cc1` gave a solubility [5] of 202 µM (≈ 62.5 µg/mL), an Activity [1] of 58.4% and an Activity [2] of 62.6%. The Activity [3] was 91.4% and the Activity [4] was 55.5%.
With `CC(=O)Nc1ccc(NC(=O)c2c[nH]c3c(Cl)cccc3c2=O)cc1` the Activity [6] was 96 mm, the solubility [5] was 34.7 µM (≈ 12.3 µg/mL) and the Activity [1] was 61.5%. For the same compound, the Activity [8] was “Active”, the Activity [9, 11] was “Active” and the Activity [2] was 62%. For the same compound, the Activity [3] was 91.9% and the Activity [4] was 62.7%.
Work on `Cc1ccc(O)cc1NC(=O)c1c[nH]c2ccccc2c1=O` yielded a solubility [5] of 29.6 µM (≈ 8.71 µg/mL), a Ratio [7] of 154 and an Activity [1] of 59.5%. The Activity [8] was “Active”, the Activity [9] was “inactive” and the Activity [2] was 52%. For the same compound, the Activity [10] was 45%, the Activity [3] was 63.6% and the Activity [4] was 50.2%.
In the case of `COc1ccccc1NC(=O)c1c[nH]c2ccccc2c1=O`, the Activity [1] was 36.6%, the Activity [2] was 60.1% and the Activity [3] was 63%. The Activity [4] was 31.2%.
Compound `COc1ccc(NC(=O)c2c[nH]c3ccccc3c2=O)cc1` has an Activity [1] of 71%, an Activity [2] of 69.8% and an Activity [3] of 81.1%. For the same compound, the Activity [4] was 53.1%.
`COc1ccccc1CNC(=O)c1c[nH]c2c(Cl)cccc2c1=O` gave an Activity [1] of 44.4%, an Activity [2] of 41.2% and an Activity [3] of 66.1%. The Activity [4] was 23.2%.
`COc1cccc(NC(=O)c2c[nH]c3ccccc3c2=O)c1` gave a solubility [5] of 454 µM (≈ 133 µg/mL), an Activity [1] of 65.5% and an Activity [2] of 59.5%. It also gave an Activity [3] of 100.8% and an Activity [4] of 44.5%.
In the case of `COc1ccccc1CNC(=O)c1c[nH]c2ccccc2c1=O`, the Activity [1] was 50.3%, the Activity [2] was 44.4% and the Activity [3] was 28.8%. For the same compound, the Activity [4] was 17.7%.
With `COc1ccccc1NC(=O)C1=Cc2c(OC)cccc2OC1` the Activity [1] was 58.2%, the Activity [2] was 56.1% and the Activity [3] was 81.8%. It also gave an Activity [4] of 50.9%.
With `COc1ccccc1NC(=O)C1=Cc2ccccc2OC1` the Activity [1] was 41.2%, the Activity [2] was 36.9% and the Activity [3] was 74.1%. For the same compound, the Activity [4] was 76.9%.
`N#Cc1ccc(NC(=O)c2c[nH]c3ccccc3c2=O)cc1` showed an Activity [1] of 34.7%, an Activity [2] of 39.7% and an Activity [3] of 71.9%. For the same compound, the Activity [4] was 40.7%.
With `COc1cccc2c1C=C(C(=O)Nc1cc(Cl)ccc1O)CO2` the Activity [1] was 51.2%, the Activity [2] was 58.5% and the Activity [3] was 95%. It also gave an Activity [4] of 64.8%.
Compound `O=C(NCc1ccc(Br)cc1)c1cc2c(Br)cccc2oc1=O` has an Activity [1] of 40.87%, an Activity [2] of 40.76% and an Activity [3] of 94.97%. For the same compound, the Activity [4] was 39.9%.
In the case of `COc1cccc2c1OCC(C(=O)Nc1cc(Cl)ccc1O)=C2`, the Activity [1] was 61.5%, the Activity [2] was 58.6% and the Activity [3] was 92.6%. It also gave an Activity [4] of 71.3%.
`O=C(NCc1cccc(Cl)c1)c1cc2c(Br)cccc2oc1=O` gave an Activity [1] of 45.4%, an Activity [2] of 45.2% and an Activity [3] of 97%. The Activity [4] was 43.1%.
In the case of `COc1cccc2c1OCC(C(=O)Nc1ccc(Br)cn1)=C2`, the Activity [1] was 65.3%, the Activity [2] was 58.2% and the Activity [3] was 75.3%. It also gave an Activity [4] of 43.7%.
With `COc1cccc2c1C=C(C(=O)Nc1ccc(NC(C)=O)cc1)CO2` the Activity [1] was 59.2%, the Activity [2] was 76.9% and the Activity [3] was 85.5%. For the same compound, the Activity [4] was 56.9%.
Work on `CC(C(O)c1ccc(O)cc1)N1CCC(Cc2ccccc2)CC1` (stereo not given) [IFENPRODIL] yielded an Activity [1] of 41.4%, an Activity [2] of 46.4% and an Activity [3] of 82.3%. For the same compound, the Activity [4] was 40.3%.
`COC(=O)c1ccc(NC(=O)C2=Cc3cccc(OC)c3OC2)cc1` showed an Activity [1] of 58.7%, an Activity [2] of 57.5% and an Activity [3] of 73.3%. The Activity [4] was 41.2%.
With `CNC(=O)c1ccccc1NC(=O)c1c[nH]c2ccccc2c1=O` the solubility [5] was 62.3 µM (≈ 20 µg/mL), the Activity [1] was 56.4% and the Activity [2] was 55.9%. It also gave an Activity [3] of 90.6% and an Activity [4] of 53.7%.
`COC(=O)c1ccc(NC(=O)c2c[nH]c3ccccc3c2=O)cc1` gave an Activity [1] of 61.6%, an Activity [2] of 61.3% and an Activity [3] of 73.6%. The Activity [4] was 49.7%.
With `COc1cccc2c1OCC(C(=O)Nc1ccc(NC(C)=O)cc1)=C2` the Activity [1] was 53.5%, the Activity [2] was 54% and the Activity [3] was 67.3%. For the same compound, the Activity [4] was 41.2%.
Compound `CC(=O)c1ccc(NC(=O)c2c[nH]c3ccccc3c2=O)cc1` has an Activity [1] of 30.8%, an Activity [2] of 30.8% and an Activity [3] of 74.6%. The Activity [4] was 40.2%.
For `O=C(Nc1cccnc1)c1c[nH]c2ccccc2c1=O`, the Activity [1] was 42.5%, the Activity [2] was 38.5% and the Activity [3] was 80.9%. It also gave an Activity [4] of 39.3%.
In the case of `CNC(=O)c1ccccc1NC(=O)C1=Cc2c(Br)cccc2OC1`, the Activity [1] was 48.1%, the Activity [2] was 46.1% and the Activity [3] was 89.2%. For the same compound, the Activity [4] was 47.9%.
In the case of `CCOc1ccc(NC(=O)c2cnc3ccccc3c2O)cc1`, the Activity [1] was 36.4%, the Activity [2] was 28.8% and the Activity [3] was 93.2%. The Activity [4] was 52.7%.
`O=C(Nc1cc(Cl)ccc1O)C1=Cc2ccccc2OC1` gave an Activity [1] of 67.6%, an Activity [2] of 57.2% and an Activity [3] of 92.2%. For the same compound, the Activity [4] was 52.5%.
Compound `CC(=O)Nc1ccc(NC(=O)C2=Cc3c(Br)cccc3OC2)cc1` has an Activity [1] of 46.7%, an Activity [2] of 46.9% and an Activity [3] of 92.9%. It also gave an Activity [4] of 41.7%.
`COc1cccc2c(=O)c(C(=O)Nc3cc(O)ccc3C)c[nH]c12` showed an Activity [1] of 34.5%, an Activity [2] of 46.4% and an Activity [3] of 85.8%. For the same compound, the Activity [4] was 56.1%.
With `COc1ccccc1NC(=O)c1c[nH]c2c(Cl)cccc2c1=O` the solubility [5] was 13.7 µM (≈ 4.5 µg/mL), the Activity [1] was 64.3% and the Activity [8] was “Active”. The Activity [9, 11] was “Active”, the Activity [2] was 64.9% and the Activity [10] was 49%. The Activity [3] was 84.4% and the Activity [4] was 52.8%.
`COc1ccc(NC(=O)c2c[nH]c3c(Cl)cccc3c2=O)cc1` gave an Activity [1] of 33.6%, an Activity [2] of 35.5% and an Activity [3] of 79.9%. For the same compound, the Activity [4] was 54.3%.
`COc1ccc(NC(=O)C2=Cc3ccccc3OC2)cc1` showed an Activity [1] of 43.3%, an Activity [2] of 35% and an Activity [3] of 100.3%. For the same compound, the Activity [4] was 61.5%.
With `CC(=O)Nc1ccc(NC(=O)c2c[nH]c3ccccc3c2=O)cc1` the solubility [5] was less than 6.2 µM, the Activity [1] was 57.2% and the Activity [2] was 66.6%. For the same compound, the Activity [3] was 101.5% and the Activity [4] was 65.4%.
In the case of `COc1cccc(OC)c1NC(=O)C1=Cc2c(Br)cccc2OC1`, the Activity [1] was 45.2%, the Activity [2] was 46.4% and the Activity [3] was 92.9%. For the same compound, the Activity [4] was 52.8%.

Source: ChEMBL document CHEMBL5252626, “Design and synthesis of novel GluN2A NMDAR positive allosteric modulators via scaffold hopping strategy as anti-stroke therapeutic agents” (Bioorg Med Chem, 2023)
